What was measured:
Assay in all cases: relative viability (nuclei count vs DMSO), 5 days (fraction); higher = more cells survive
Crizotinib + Phenformin = compound: C[C@@H](Oc1cc(-c2cnn(C3CCNCC3)c2)cnc1N)c1c(Cl)ccc(F)c1Cl [Crizotinib] + N=C(N)NC(=N)NCCc1ccccc1 [Phenformin] (partner 250 µM)
Procedure, shortened: (§1)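 Lung cancer cell lines were seeded in 1536-well plates and dosed by pin tool the next day, with either a single drug or a fixed anchor-drug dose combined with five library-drug doses (not always all listed) spaced in √10 steps. Five days later, one step fixed the cells and stained their nuclei (final 0.05% Triton X-100, 1% formaldehyde, 1 ug/ml Hoechst), and nuclei were counted on 4× images. Relative viability is the nuclei count in treated wells divided by the count in vehicle wells, and each value is the median of duplicate plates.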

Carfilzomib + Olaparib = compound: CC(C)C[C@H](NC(=O)[C@H](CCc1ccccc1)NC(=O)CN1CCOCC1)C(=O)N[C@@H](Cc1ccccc1)C(=O)N[C@@H](CC(C)C)C(=O)[C@@]1(C)CO1 [Carfilzomib] + O=C(c1cc(Cc2n[nH]c(=O)c3ccccc23)ccc1F)N1CCN(C(=O)C2CC2)CC1 [Olaparib] (partner 8 µM)
Procedure, shortened: as §1

Olaparib + OSI-027 = compound: O=C(c1cc(Cc2n[nH]c(=O)c3ccccc23)ccc1F)N1CCN(C(=O)C2CC2)CC1 [Olaparib] + COc1cccc2cc(-c3nc([C@H]4CC[C@H](C(=O)O)CC4)n4ncnc(N)c34)[nH]c12 [OSI-027] (partner 0.5 µM)
Procedure, shortened: as §1

Carfilzomib + Pemetrexed = compound: CC(C)C[C@H](NC(=O)[C@H](CCc1ccccc1)NC(=O)CN1CCOCC1)C(=O)N[C@@H](Cc1ccccc1)C(=O)N[C@@H](CC(C)C)C(=O)[C@@]1(C)CO1 [Carfilzomib] + Nc1nc2[nH]cc(CCc3ccc(C(=O)N[C@@H](CCC(=O)O)C(=O)O)cc3)c2c(=O)[nH]1 [Pemetrexed] (partner 0.2 µM)
Procedure, shortened: as §1

Cell Line	relative viability (Crizotinib + Phenformin; first compound 0.01 µM)	relative viability (Crizotinib + Phenformin; first compound 0.03162 µM)	relative viability (Crizotinib + Phenformin; first compound 0.1 µM)	relative viability (Carfilzomib + Olaparib; first compound 0.001 µM)	relative viability (Carfilzomib + Olaparib; first compound 0.003162 µM)	relative viability (Carfilzomib + Olaparib; first compound 0.01 µM)	relative viability (Carfilzomib + Olaparib; first compound 0.03162 µM)	relative viability (Carfilzomib + Olaparib; first compound 0.1 µM)	relative viability (Olaparib + OSI-027; first compound 0.08 µM)	relative viability (Olaparib + OSI-027; first compound 0.253 µM)	relative viability (Olaparib + OSI-027; first compound 2.53 µM)	relative viability (Olaparib + OSI-027; first compound 8 µM)	relative viability (Carfilzomib + Pemetrexed; first compound 0.001 µM)	relative viability (Carfilzomib + Pemetrexed; first compound 0.003162 µM)	relative viability (Carfilzomib + Pemetrexed; first compound 0.01 µM)	relative viability (Carfilzomib + Pemetrexed; first compound 0.03162 µM)	relative viability (Carfilzomib + Pemetrexed; first compound 0.1 µM)	relative viability (Crizotinib + Phenformin; first compound 0.3162 µM)	relative viability (Crizotinib + Phenformin; first compound 1 µM)
NCI-H441	0.671	0.87	0.713	0.749	0.542	0.288	0.146	0.15	0.683	0.724	0.642	0.581	0.26	0.257	0.244	0.134	0.133		
NCI-H460	0.488	0.521	0.536	0.41	0.444	0.485	0.443	0.0304	0.677	0.643	0.434	0.215	0.0648	0.0611	0.0649	0.0671	0.0245	0.526	0.564
NCI-H520	0.449	0.682	0.588	0.307	0.297	0.203	0.161	0.15	0.233	0.246	0.281	0.213	0.664	0.712	0.568	0.169	0.131	0.281	0.45
NCI-H522	0.702	0.612	0.527	0.586	0.778	0.694	0.489	0.314	0.783	0.659	0.723	0.642	1.19	0.906	0.963	0.717	0.339	0.768	0.649
NCI-H596	0.754	0.859	0.68	0.691	0.704	0.727	0.552	0.186	0.718	0.782	0.718	0.642	0.486	0.519	0.421	0.329	0.244	0.761	0.754
NCI-H647	0.494	0.634	0.429	0.641	0.644	0.0662	0.0256	0.023	0.701	0.596	0.688	0.482	0.193	0.179	0.126	0.0407	0.0343	0.513	0.488
NCI-H650	0.392	0.451	0.482	0.363	0.382	0.414	0.247	0.112	0.631	0.498	0.5	0.414	0.954	1.04	1.27	0.781	0.137	0.365	0.44

From the supplement of paper PMC10307832
